In ChEMBL document CHEMBL3046607, “Synthesis and Herbicidal Activity of New 1-Alkyl-3-aryloxypyrazole-4-carboxamide Derivatives” (J Pestic Sci, 2004):
Active and inactive are the calls of the source. The calls are words filed in the database; no cut-off is given here.

Experiments:
[1] = test system: Pontederia vaginalis; assay: Pre-emergence herbicidal activity against Monochoria vaginalis at 500 g a.i/ha measured after 14 days; format: functional, organism-based
[2] = test system: Schoenoplectiella juncoides; assay: Pre-emergence herbicidal activity against Schoenoplectiella juncoides at 500 g a.i/ha measured after 14 days; format: functional, organism-based
[3] = test system: Ammannia multiflora; assay: Pre-emergence herbicidal activity against Ammannia multiflora assessed as bleaching of stem/leaf parts; format: functional, organism-based
[4] = test system: Oryza sativa; assay: Phytotoxicity against Oryza sativa cv. Koshihikari (rice) at 500 g a.i/ha measured after 14 days; format: organism-based; conditions: in vivo, 336 h
[5] = test system: Schoenoplectiella juncoides; assay: Post-emergence herbicidal activity against Schoenoplectiella juncoides assessed as bleaching of stem/leaf parts; format: functional, organism-based; further: test concentration or dose not given here
[6] = test system: Cyperus difformis; assay: Pre-emergence herbicidal activity against Cyperus difformis at 500 g a.i/ha measured after 14 days; format: functional, organism-based
[7] = test system: Cyperus difformis; assay: Post-emergence herbicidal activity against Cyperus difformis assessed as bleaching of stem/leaf parts; format: functional, organism-based; further: test concentration or dose not given here
[8] = test system: Lindernia procumbens; assay: Pre-emergence herbicidal activity against Lindernia procumbens at 500 g a.i/ha measured after 14 days; format: functional, organism-based
[9] = test system: Echinochloa oryzicola; assay: Pre-emergence herbicidal activity against Echinochloa oryzicola at 500 g a.i/ha measured after 14 days; format: functional, organism-based
[10] = test system: Rotala indica; assay: Post-emergence herbicidal activity against Rotala indica assessed as bleaching of stem/leaf parts; format: functional, organism-based
[11] = test system: Ammannia multiflora; assay: Pre-emergence herbicidal activity against Ammannia multiflora at 500 g a.i/ha measured after 14 days; format: functional, organism-based
[12] = test system: Echinochloa oryzicola; assay: Post-emergence herbicidal activity against Echinochloa oryzicola assessed as bleaching of stem/leaf parts; format: functional, organism-based
[13] = test system: Lindernia procumbens; assay: Post-emergence herbicidal activity against Lindernia procumbens assessed as bleaching of stem/leaf parts; format: functional, organism-based; further: test concentration or dose not given here
[14] = test system: Lindernia procumbens; assay: Pre-emergence herbicidal activity against Lindernia procumbens assessed as bleaching of stem/leaf parts; format: functional, organism-based
[15] = test system: Rotala indica; assay: Pre-emergence herbicidal activity against Rotala indica at 500 g a.i/ha measured after 14 days; format: functional, organism-based
[16] = test system: Elatine triandra; assay: Pre-emergence herbicidal activity against Elatine triandra assessed as bleaching of stem/leaf parts; format: functional, organism-based
[17] = test system: Echinochloa oryzicola; assay: Pre-emergence herbicidal activity against Echinochloa oryzicola assessed as bleaching of stem/leaf parts; format: functional, organism-based
[18] = test system: Cyperus difformis; assay: Pre-emergence herbicidal activity against Cyperus difformis assessed as bleaching of stem/leaf parts; format: functional, organism-based
[19] = test system: Ammannia multiflora; assay: Post-emergence herbicidal activity against Ammannia multiflora assessed as bleaching of stem/leaf parts; format: functional, organism-based
[20] = test system: Pontederia vaginalis; assay: Post-emergence herbicidal activity against Monochoria vaginalis assessed as bleaching of stem/leaf parts; format: functional, organism-based
[21] = test system: Elatine triandra; assay: Post-emergence herbicidal activity against Elatine triandra assessed as bleaching of stem/leaf parts; format: functional, organism-based; further: test concentration or dose not given here
[22] = test system: Schoenoplectiella juncoides; assay: Pre-emergence herbicidal activity against Schoenoplectiella juncoides assessed as bleaching of stem/leaf parts; format: functional, organism-based
[23] = test system: Rotala indica; assay: Pre-emergence herbicidal activity against Rotala indica assessed as bleaching of stem/leaf parts; format: functional, organism-based
[24] = test system: Pontederia vaginalis; assay: Pre-emergence herbicidal activity against Monochoria vaginalis assessed as bleaching of stem/leaf parts; format: functional, organism-based
[25] = test system: Elatine triandra; assay: Pre-emergence herbicidal activity against Elatine triandra at 500 g a.i/ha measured after 14 days; format: functional, organism-based
[26] = test system: Lindernia procumbens; assay: Pre-emergence herbicidal activity against Lindernia procumbens at 33 g a.i/ha measured after 14 days; format: functional, organism-based
[27] = test system: Ammannia multiflora; assay: Pre-emergence herbicidal activity against Ammannia multiflora at 33 g a.i/ha measured after 14 days; format: functional, organism-based
[28] = test system: Oryza sativa; assay: Phytotoxicity against Oryza sativa cv. Koshihikari (rice) at 33 g a.i/ha measured after 14 days; format: organism-based; conditions: in vivo, 336 h
[29] = test system: Pontederia vaginalis; assay: Pre-emergence herbicidal activity against Monochoria vaginalis at 33 g a.i/ha measured after 14 days; format: functional, organism-based
[30] = test system: Elatine triandra; assay: Pre-emergence herbicidal activity against Elatine triandra at 33 g a.i/ha measured after 14 days; format: functional, organism-based
[31] = test system: Schoenoplectiella juncoides; assay: Pre-emergence herbicidal activity against Schoenoplectiella juncoides at 33 g a.i/ha measured after 14 days; format: functional, organism-based
[32] = test system: Rotala indica; assay: Pre-emergence herbicidal activity against Rotala indica at 33 g a.i/ha measured after 14 days; format: functional, organism-based
[33] = test system: Cyperus difformis; assay: Pre-emergence herbicidal activity against Cyperus difformis at 33 g a.i/ha measured after 14 days; format: functional, organism-based
[34] = test system: Echinochloa oryzicola; assay: Pre-emergence herbicidal activity against Echinochloa oryzicola at 33 g a.i/ha measured after 14 days; format: functional, organism-based

Structure (SMILES)	Activity [1]	Activity [2]	Activity [3]	Activity [4]	Activity [5]	Activity [6]	Activity [7]	Activity [10]	Activity [12]	Activity [13]	Activity [14]	Activity [16]	Activity [17]	Activity [18]	Activity [19]	Activity [20]	Activity [21]	Activity [22]	Activity [23]	Activity [24]	other results
Cn1cc(C(=O)NC2CC2)c(Oc2cccc(C(F)(F)F)c2)n1	inactive	inactive	Active	Non-toxic	Active	inactive	Active	Active	Active	Active	Active	Active	Active	Active	Active	Active	Active	Active	Active	Active	Activity [8]: inactive; Activity [9]: inactive; Activity [11]: inactive; Activity [15]: inactive; Activity [25]: inactive
Cn1cc(C(=O)Nc2ccc(F)cc2F)c(Oc2cc(C(F)(F)F)ccn2)n1	inactive	inactive	Active	Non-toxic	Active	inactive	Active	Active	Active	Active	Active	Active	Active	Active	Active	Active	Active	Active	Active	Active	Activity [8]: inactive; Activity [9]: inactive; Activity [11]: inactive; Activity [15]: inactive; Activity [25]: inactive
Cn1cc(NC(=O)c2ccc(F)cc2)c(Oc2cccc(C(F)(F)F)c2)n1	inactive	inactive	Active	Non-toxic	Active	inactive	Active	Active	Active	Active	Active	Active	Active	Active	Active	Active	Active	Active	Active	Active	Activity [8]: inactive; Activity [9]: inactive; Activity [11]: inactive; Activity [15]: inactive; Activity [25]: inactive
Cn1cc(C(=O)NCc2cccc(Cl)c2)c(Oc2cccc(C(F)(F)F)c2)n1	inactive	inactive	Active	Non-toxic	Active	inactive	Active	Active	Active	Active	Active	Active	Active	Active	Active	Active	Active	Active	Active	Active	Activity [8]: inactive; Activity [9]: inactive; Activity [11]: inactive; Activity [15]: inactive; Activity [25]: inactive
CCCCNC(=O)c1cn(C)nc1Oc1cccc(C(F)(F)F)c1	inactive	inactive	Active	Non-toxic	Active	inactive	Active	Active	Active	Active	Active	Active	Active	Active	Active	Active	Active	Active	Active	Active	Activity [8]: inactive; Activity [9]: inactive; Activity [11]: inactive; Activity [15]: inactive; Activity [25]: inactive
Cn1cc(C(=O)Nc2ccc(F)cc2)c(Oc2cccc(C(F)(F)F)c2)n1			Active		Active		Active	Active	Active	Active	Active	Active	Active	Active	Active	Active	Active	Active	Active	Active	Activity [26]: Active; Activity [27]: Active; Activity [28]: Non-toxic; Activity [29]: Active; Activity [30]: Active; Activity [31]: inactive; Activity [32]: Active; Activity [33]: Active; Activity [34]: Active
Cn1cc(C(=O)Nc2ccccc2Cl)c(Oc2cccc(C(F)(F)F)c2)n1			Active		Active		Active	Active	Active	Active	Active	Active	Active	Active	Active	Active	Active	Active	Active	Active	Activity [26]: Active; Activity [27]: Active; Activity [28]: Non-toxic; Activity [29]: Active; Activity [30]: Active; Activity [31]: Active; Activity [32]: Active; Activity [33]: Active; Activity [34]: Active
Cn1cc(C(=O)Nc2ccc(Cl)cc2Cl)c(Oc2cccc(C(F)(F)F)c2)n1			Active		Active		Active	Active	Active	Active	Active	Active	Active	Active	Active	Active	Active	Active	Active	Active	Activity [26]: Active; Activity [27]: Active; Activity [28]: Non-toxic; Activity [29]: Active; Activity [30]: Active; Activity [31]: inactive; Activity [32]: Active; Activity [33]: Active; Activity [34]: inactive
Cn1cc(C(=O)Nc2cccc(F)c2F)c(Oc2cccc(C(F)(F)F)c2)n1			Active		Active		Active	Active	Active	Active	Active	Active	Active	Active	Active	Active	Active	Active	Active	Active	Activity [26]: Active; Activity [27]: Active; Activity [28]: Non-toxic; Activity [29]: Active; Activity [30]: Active; Activity [31]: inactive; Activity [32]: Active; Activity [33]: Active; Activity [34]: inactive
